Measurements taken from patent US11161856B2 (H. Lundbeck A/S, priority 2017, dated 2021).

Key:
Type in all cases: biochemical
ABHD6 = biological target: T1, ABHD6 (Mus musculus, UniProt Q8R2Y0); assay: In vitro competitive activity-based protein profiling, mouse brain proteome (ABHD6); conditions: mouse brain proteome; concentration not given (μM)
T1 construct: Brain; from tissue; host or cells: mouse brain proteome
T1 sequence (Q8R2Y0 1-336): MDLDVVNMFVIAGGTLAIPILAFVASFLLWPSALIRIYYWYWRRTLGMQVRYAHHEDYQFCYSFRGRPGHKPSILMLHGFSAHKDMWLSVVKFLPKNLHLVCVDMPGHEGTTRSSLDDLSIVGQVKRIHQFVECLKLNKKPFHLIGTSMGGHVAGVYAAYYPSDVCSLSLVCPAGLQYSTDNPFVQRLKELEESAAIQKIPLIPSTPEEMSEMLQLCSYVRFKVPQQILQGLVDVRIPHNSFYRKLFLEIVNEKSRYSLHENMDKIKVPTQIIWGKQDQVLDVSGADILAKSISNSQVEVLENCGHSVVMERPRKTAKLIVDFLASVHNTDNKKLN
Protocol: [The source words this procedure for another target and reports this target under the same test.] (§1) In Vitro Competitive Activity-Based Protein Profiling.
(§2) Proteomes (human prefrontal cortex or cell membrane fractions) (50 μL, 1.0 mg/mL total protein concentration) were preincubated with varying concentrations of inhibitors at 37° C. After 30 min, FP-Rh or HT-01 (1.0 μL, 50 μM in DMSO) was added and the mixture was incubated for another 30 min at room temperature. Reactions were quenched with SDS loading buffer (15 μL-4×) and run on SDS-PAGE.

MAGL = biological target: T2, MAGL (Homo sapiens, UniProt Q99685); assay: In vitro competitive activity-based protein profiling (FP-Rh or HT-01 probe, gel-based); parameters: IC50 MGLL PC3 (Human, μM) / IC50 MGLL PFC (Human, μM): scale not given here; conditions: for % Inh MGLL PC3 (Human, μM) / IC50 MGLL PC3 (Human, μM): PC3 cell proteome; for % Inh MGLL PC3 (Human, μM) / % Inh MGLL PFC (Human, μM): concentration not given (μM); for % Inh MGLL PFC (Human, μM) / IC50 MGLL PFC (Human, μM): prefrontal cortex (PFC) proteome
T2 construct: Proteomes (human prefrontal cortex or cell membrane fractions); from tissue
T2 sequence (Q99685 1-303): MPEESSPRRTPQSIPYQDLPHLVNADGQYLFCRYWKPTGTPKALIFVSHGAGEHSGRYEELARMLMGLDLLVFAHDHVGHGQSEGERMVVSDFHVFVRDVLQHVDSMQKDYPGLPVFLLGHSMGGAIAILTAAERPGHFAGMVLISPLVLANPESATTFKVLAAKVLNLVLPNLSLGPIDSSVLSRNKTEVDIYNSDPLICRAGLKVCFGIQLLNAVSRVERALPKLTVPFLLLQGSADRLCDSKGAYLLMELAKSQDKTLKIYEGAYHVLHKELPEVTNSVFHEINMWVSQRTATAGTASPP
Protocol: as §1, §2

MGLL = biological target: T3, MGLL (Mus musculus, UniProt O35678); assay: In vitro competitive activity-based protein profiling, mouse brain proteome (MGLL); conditions: concentration not given (μM)
T3 construct: Brain; from tissue; host or cells: mouse brain proteome
T3 sequence (O35678 1-303): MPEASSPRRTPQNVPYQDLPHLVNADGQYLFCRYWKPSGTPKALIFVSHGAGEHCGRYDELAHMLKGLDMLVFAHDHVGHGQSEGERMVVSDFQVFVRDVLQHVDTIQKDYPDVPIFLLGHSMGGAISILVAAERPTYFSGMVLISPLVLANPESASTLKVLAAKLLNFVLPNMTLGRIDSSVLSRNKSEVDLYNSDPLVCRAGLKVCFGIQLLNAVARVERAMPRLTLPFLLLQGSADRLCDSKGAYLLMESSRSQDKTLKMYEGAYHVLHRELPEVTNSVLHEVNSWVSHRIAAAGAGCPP

% Inh ABHD6 Brain (Mouse, μM) (ABHD6) | % Inh MGLL PC3 (Human, μM) (MAGL) | % Inh MGLL Brain (Mouse, μM) (MGLL) | % Inh MGLL PFC (Human, μM) (MAGL) | IC50 MGLL PC3 (Human, μM) (MAGL) | IC50 MGLL PFC (Human, μM) (MAGL) | SMILES
### (### is ≥75%) | ### (### is ≥75%) | ### (### is ≥75%) |  |  |  | CN(Cc1ccc(Cl)cc1N1CCC(C(=O)O)CC1)C1(C)CCN(C(=O)OC(C(F)(F)F)C(F)(F)F)CC1 [Example 135, l-(5-Chloro-2-(((1-(((1,1,1,3,3,3-hexafluoropropan-2-yl)oxy)carbonyl)-4-methylpiperidin-4-yl)(methyl)amino)methyl)phenyl)piperidine-4-carboxylic acid]
### (### is ≥75%) |  | ## (## is between 25 and 75%) | ### (### is ≥75%) |  |  | O=C(O)C1CCN(c2ccc(CN3CCC4(CC3)CCN(C(=O)OC(C(F)(F)F)C(F)(F)F)C4)cc2C(F)(F)F)CC1 [Example 219, l-(4-((2-(((1,1,1,3,3,3-Hexafluoropropan-2-yl)oxy)carbonyl)-2,8-diazaspiro[4.5]decan-8-yl)methyl)-2-(trifluoromethyl)phenyl) piperidine-4-carboxylic acid]
# (# is ≤25%) |  | ### (### is ≥75%) | ### (### is ≥75%) |  |  | O=C(O)CN1CC2CN(c3cc(C(F)(F)F)ccc3CN3CCCC34CCN(C(=O)OC(C(F)(F)F)C(F)(F)F)CC4)CC2C1 (centres unmarked) [Example 155]
# (# is ≤25%) | ### (### is ≥75%) | ### (### is ≥75%) |  |  |  | CN(Cc1ccc(C(F)(F)F)cc1OCC(=O)O)C1(C)CCN(C(=O)OC(C(F)(F)F)C(F)(F)F)CC1 [Example 136, 2-(2-(((1-(((1,1,1,3,3,3-Hexafluoropropan-2-yl)oxy)carbonyl)-4-methylpiperidin-4-yl)(methyl)amino)methyl)-5-(trifluoromethyl)phenoxy)acetic acid]
# (# is ≤25%) |  | ### (### is ≥75%) | ### (### is ≥75%) |  |  | O=C(O)C1CCN(c2cc(F)ccc2CN2CC3(CCN(C(=O)OC(C(F)(F)F)C(F)(F)F)CC3)C2)CC1 [Example 123, l-(5-Fluoro-2-((7-(((1,1,1,3,3,3-hexafluoropropan-2-yl)oxy)carbonyl)-2,7-diazaspiro[3,5]nonan-2-yl)methyl)phenyl)piperidine-4-carboxylic acid]
## (## is between 25 and 75%) | ### (### is ≥75%) | ### (### is ≥75%) |  |  |  | CC1(OCc2ccc(Cl)cc2C2(C(=O)O)CCCC2)CCN(C(=O)OC(C(F)(F)F)C(F)(F)F)CC1 [Example 146, 1-(5-Chloro-2-{[(1-{[(1,1,1,3,3,3-hexafluoropropan-2-yl)oxy]carbonyl}-4-methylpiperidin-4-yl)oxy]methyl}phenyl) cyclopentane-1-carboxylic acid]
# (# is ≤25%) |  | ### (### is ≥75%) |  |  |  | CN1CCC2(CCN(c3cc(C(F)(F)F)ccc3CN3CCN(C(=O)OC(C(F)(F)F)C(F)(F)F)CC3)CC2)C1 [Example 182, 1,1,1,3,3,3-Hexafluoropropan-2-yl 4-(2-(2-methyl-2,8-diazaspiro[4.5]decan-8-yl)-4-(trifluoromethyl)benzyl) piperazine-1-carboxylate]
# (# is ≤25%) |  | ### (### is ≥75%) |  |  |  | O=C(OC(C(F)(F)F)C(F)(F)F)N1CCC2(CCN(Cc3ccc(C(F)(F)F)cc3N3CC4CCC(C3)O4)CC2)C1 [Example 190, 1,1,1,3,3,3-Hexafluoropropan-2-yl 8-(2-(8-oxa-3-azabicyclo[3.2.1]octan-3-yl)-4-(trifluoromethyl)benzyl)-2,8-diazaspiro[4.5]decane-2-carboxylate]

Further lines, the molecule ahead of its results:

SMILES | % Inh ABHD6 Brain (Mouse, μM) (ABHD6) | % Inh MGLL PC3 (Human, μM) (MAGL) | % Inh MGLL Brain (Mouse, μM) (MGLL) | % Inh MGLL PFC (Human, μM) (MAGL) | IC50 MGLL PC3 (Human, μM) (MAGL) | IC50 MGLL PFC (Human, μM) (MAGL)
CN(Cc1cccc(Cl)c1C1(C(=O)O)CCCC1)C1(C)CCN(C(=O)OC(C(F)(F)F)C(F)(F)F)CC1 [Example 9, 1-(2-Chloro-6-(((1-(((1,1,1,3,3,3-hexafluoropropan-2-yl)oxy)carbonyl)-4-methylpiperidin-4-yl)(methyl)amino)methyl)phenyl)cyclopentane-1-carboxylic acid] | # (# is ≤25%) | ### (### is ≥75%) | ### (### is ≥75%) |  | * * * | 
O=C(O)C1CCN(c2cc(F)cc(CN3CC4(CCN(C(=O)OC(C(F)(F)F)C(F)(F)F)CC4)C3)c2)CC1 [Example 117, 1-(3-Fluoro-5-((7-(((1,1,1,3,3,3-hexafluoropropan-2-yl)oxy)carbonyl)-2,7-diazaspiro[3.5]nonan-2-yl)methyl)phenyl)piperidine-4-carboxylic acid] | ## (## is between 25 and 75%) |  | ### (### is ≥75%) | ### (### is ≥75%) |  | 
O=C(O)C1CCN(Cc2cc(C(F)(F)F)ccc2C(=O)N2CCCC23CCN(C(=O)OC(C(F)(F)F)C(F)(F)F)CC3)CC1 [Example 10, 1-(2-(8-(((1,1,1,3,3,3-Hexafluoropropan-2-yl)oxy)carbonyl)-1,8-diazaspiro[4.5]decane-1-carbonyl)-5-(trifluoromethyl)benzyl)piperidine-4-carboxylic acid] | # (# is ≤25%) | ### (### is ≥75%) | ### (### is ≥75%) |  |  | 
O=C(O)CN1CCN(c2cc(CN3CCCC34CCN(C(=O)OC(C(F)(F)F)C(F)(F)F)CC4)cc(C(F)(F)F)c2)CC1 [Example 2, 2-(4-(3-((8-(((1,1,1,3,3,3-Hexafluoropropan-2-yl)oxy)carbonyl)-1,8-diazaspiro[4.5]decan-1-yl)methyl)-5-(trifluoromethyl)phenyl)piperazin-1-yl)acetic acid] | # (# is ≤25%) | ### (### is ≥75%) | ### (### is ≥75%) |  |  | 
N#Cc1ccc(C(=O)N2CCC3(CCN(C(=O)OC(C(F)(F)F)C(F)(F)F)CC3)C2)cc1C(F)(F)F [Example 12, 1,1,1,3,3,3-Hexafluoropropan-2-yl 2-(4-cyano-3-(trifluoromethyl)benzoyl)-2,8-diazaspiro[4.5]decane-8-carboxylate] | ### (### is ≥75%) |  | ### (### is ≥75%) | ### (### is ≥75%) | * * * | 
O=C(O)C1CCN(Cc2cc(Cl)cc(C(=O)N3CCCC34CCN(C(=O)OC(C(F)(F)F)C(F)(F)F)CC4)c2)CC1 [Example 11, 1-(3-Chloro-5-(8-(((1,1,1,3,3,3-hexafluoropropan-2-yl)oxy)carbonyl)-1,8-diazaspiro[4.5]decane-1-carbonyl)benzyl)piperidine-4-carboxylic acid] | # (# is ≤25%) | ### (### is ≥75%) | ### (### is ≥75%) |  |  | * * *
O=C(O)[C@@H]1CCCN(c2cc(C(F)(F)F)ccc2CN2CC3(CCN(C(=O)OC(C(F)(F)F)C(F)(F)F)CC3)C2)C1 [Example 107, (R)-1-(2-((7-(((1,1,1,3,3,3-Hexafluoropropan-2-yl)oxy)carbonyl)-2,7-diazaspiro[3,5]nonan-2-yl)methyl)-5-(trifluoromethyl)phenyl) piperidine-3-carboxylic acid] | # (# is ≤25%) |  | ### (### is ≥75%) | ### (### is ≥75%) |  | 
CN(Cc1ccc(C(F)(F)F)cc1N1CCC(C(=O)O)C1)C1(C)CCN(C(=O)OC(C(F)(F)F)C(F)(F)F)CC1 (stereo not drawn) [Example 118, l-(2-(((1-(((1,1,1,3,3,3-Hexailuoropropan-2-yl)oxy)carbonyl)-4-methylpiperidin-4-yl)(methyl)amino)methyl)-5-(trifluoromethyl)phenyl)pyrrolidine-3-carboxylic acid] | ## (## is between 25 and 75%) |  |  | ### (### is ≥75%) |  | 
O=C(O)CN1CC2CC1CN2c1cc(C(F)(F)F)ccc1CN1CCCC12CCN(C(=O)OC(C(F)(F)F)C(F)(F)F)CC2 (centres unmarked) [Example 6] |  |  |  |  | * * * | * * *
